# Experimental data: PMC6599521 (Biochemical pharmacology, 2019)
# Like-named read-outs stand apart in the source and are kept apart here.
# Experiments:
# murine HCN1 channels = murine HCN1 channels (Mus musculus, UniProt O88704); type: cell-based; settings: for Inverse agonist behavior on HCN1 gating (in words): ligand alone; for IC50 (in words): no clear inflection in the concentration response curve, omitted from Figure 4B; for ΔV1/2: paired experiments
# HCN1 channels [1] = target: T1, HCN1 channels (Mus musculus, UniProt O88704); experiment: Additivity/competition of ligands with 3 μM DTB-P on HCN1 gating; type: cell-based, murine; settings: increasing ligand concentrations plus 3 μM DTB-P
# HCN1 channels [2] = target: T1, HCN1 channels; experiment: Gating model; type: cell-based, murine; settings: for Association constant to closed channels (KC, QC, JC) / Association constant to open channels (KO, QO, JO) / Fold Change of closed state association constant, phenol vs cyclohexanol / Fold Change of open state association constant, phenol vs cyclohexanol: common site model S=4; for Association constant to closed channels (KC, QC, JC) / Association constant to open channels (KO, QO, JO): constants and errors divided by 10^4
# α3β glycine receptors = settings: cited from earlier work
# [3] = system: mouse peripheral nerve injury neuropathic pain models; settings: cited from earlier work
# [4] = cited from earlier work
# GABAA receptors = settings: cited from earlier work
# [5] = system: G-protein coupled inwardly rectifying K+ channels (GIRKs); settings: in vitro; cited from earlier work
# [6] = system: chimeric mu opiate (μOR-Gqi5) receptors; settings: up to 100 μM; cited from earlier work
# [7] = Hill fit maximal shift of activation midpoint, mean ± SD
# Chain of murine HCN1 channels (O88704 whole entry): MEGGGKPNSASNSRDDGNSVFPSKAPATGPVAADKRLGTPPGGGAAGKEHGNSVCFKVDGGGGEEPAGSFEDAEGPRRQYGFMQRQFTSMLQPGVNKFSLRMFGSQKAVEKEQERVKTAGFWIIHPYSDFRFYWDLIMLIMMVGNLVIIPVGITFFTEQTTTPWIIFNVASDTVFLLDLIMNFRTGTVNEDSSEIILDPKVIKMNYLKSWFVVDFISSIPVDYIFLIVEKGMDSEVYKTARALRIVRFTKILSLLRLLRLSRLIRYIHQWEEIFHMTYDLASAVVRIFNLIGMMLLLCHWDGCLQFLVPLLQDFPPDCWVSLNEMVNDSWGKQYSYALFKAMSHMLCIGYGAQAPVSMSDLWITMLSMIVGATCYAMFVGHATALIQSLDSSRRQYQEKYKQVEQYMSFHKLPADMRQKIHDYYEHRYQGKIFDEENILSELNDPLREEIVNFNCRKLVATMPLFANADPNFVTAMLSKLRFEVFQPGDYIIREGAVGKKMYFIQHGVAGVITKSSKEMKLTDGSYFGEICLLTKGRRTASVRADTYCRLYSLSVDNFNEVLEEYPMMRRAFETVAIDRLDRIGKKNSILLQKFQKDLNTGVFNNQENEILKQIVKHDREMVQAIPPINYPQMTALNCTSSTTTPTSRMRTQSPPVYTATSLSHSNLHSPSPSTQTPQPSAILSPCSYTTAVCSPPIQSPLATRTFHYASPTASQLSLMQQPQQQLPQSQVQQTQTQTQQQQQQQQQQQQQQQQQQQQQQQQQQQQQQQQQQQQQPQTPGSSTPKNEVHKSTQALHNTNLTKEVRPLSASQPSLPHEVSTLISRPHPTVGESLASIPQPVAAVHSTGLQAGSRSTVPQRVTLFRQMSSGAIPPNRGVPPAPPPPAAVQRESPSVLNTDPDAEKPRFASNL
# T1 sequence (O88704 whole entry): as above
smiles,measurement,setting,value
"CC(C)c1cccc(C(C)C)c1F [DIP-PF, 2,6-di-iso-propyl phenyl-fluorine]",IC50,murine HCN1 channels,267 ± 24 µM
same,Destabilization of association on replacing OH with F,murine HCN1 channels; from observed IC50 ratio,2.3 kcal/mol
same,Destabilization of association on replacing OH with F,murine HCN1 channels; from partition-corrected IC50 ratio,4.5 kcal/mol
same,Shift in IC50 on replacing OH with F,murine HCN1 channels; ratio of observed aqueous IC50s of DIP-P and DIP-PF,46 fold
same,Shift in IC50 on replacing OH with F,murine HCN1 channels; ratio of partition-corrected IC50s of DIP-P and DIP-PF,"1,870 fold"
"Cc1cccc(C)c1O [DM-P, 2,6-di-methyl phenol]",Inverse agonist behavior on HCN1 gating (in words),murine HCN1 channels,ineffective
same,IC50 (in words),murine HCN1 channels,ill-defined
"CCC(C)c1cccc(C(C)CC)c1O (stereo not drawn) [DSB-P, 2,6-di-sec-butyl phenol]",Behavior in the presence of 3 μM DTB-P (in words),HCN1 channels [1],low affinity full inverse agonist
same,Jc^I closed state association constant,"HCN1 channels [2]; common site model S=4, fit of data without and with 3 μM DTB-P, not scaled","3,696 ± 2,948"
"CC(C)(C)c1cccc(C(C)(C)C)c1O [DTB-P, 2,6-di-tert-butyl phenol]",Effect on open channel probability (Po) of α3β glycine receptors,α3β glycine receptors,increases open channel probability
same,Anti-hyperalgesia,[3],mechanical and thermal anti-hyperalgesia
same,IC50,murine HCN1 channels,4.8 ± 0.8 µM
same,ΔV1/2 max,murine HCN1 channels; [7],−42.4 ± 2.8 mV
same,h (Hill coefficient),"murine HCN1 channels; Hill fit, mean ± SD",0.97 ± 0.13
same,Shift in the V1/2 of HCN1 gating,murine HCN1 channels; at the highest concentrations,~ −40 mV
same,Increase of solubility by 2-hydroxypropyl-β-cyclodextrin (HPβCD),[4],≥ 200 fold
same,Activity at GABAA receptors,GABAA receptors,minimal activity
"CCC1CCCC(CC)C1O (stereo not drawn) [DE-CH, 2,6-di-ethyl cyclohexanol]",Behavior in the presence of 3 μM DTB-P (in words),HCN1 channels [1],neither additivity nor competition
same,IC50,murine HCN1 channels,3000 ± 723 µM
same,Inverse agonist behavior on HCN1 gating (in words),murine HCN1 channels,only weakly effective as an inverse agonist
same,IC50 (in words),murine HCN1 channels,ill-defined
"CCc1cccc(CC)c1N=C=O [DE-PIC, 2,6-diethyl phenyl-isocyanate]",Inverse agonist behavior on HCN1 gating (in words),murine HCN1 channels,effective
"CC(C)c1cccc(C(C)C)c1O [DIP-P, 2,6-di-iso-propyl phenol, reference compound]",Behavior in the presence of 3 μM DTB-P (in words),HCN1 channels [1],second full inverse
same,Anti-hyperalgesia,[3],mechanical and thermal anti-hyperalgesia
same,Shift in the V1/2 of HCN1 gating,murine HCN1 channels,~ −40 mV
same,h (Hill coefficient),murine HCN1 channels,0.85 ± 0.11
same,ΔV1/2 max,murine HCN1 channels,−39.8 ± 2.3 mV
same,IC50,murine HCN1 channels; IC50,5.8 ± 1.2 µM
same,Direct effect on GIRKs,[5],no direct effect
same,Effect on DAMGO-evoked currents generated by μOR-Gqi5 receptors,[6],inhibit
same,Increase of solubility by 2-hydroxypropyl-β-cyclodextrin (HPβCD),[4],≥ 200 fold
"Cc1cccc(C)c1N=C=O [DM-PIC, 2,6-di-methyl phenyl-isocyanate]",Inverse agonist behavior on HCN1 gating (in words),murine HCN1 channels,ineffective
same,IC50 (in words),murine HCN1 channels,ill-defined
"CCC(C)C1CCCC(C(C)CC)C1O (stereo not drawn) [DSB-CH, 2,6-di-sec-butyl cyclohexanol]","Association constant to closed channels (KC, QC, JC)",HCN1 channels [2],no effect
same,"Association constant to open channels (KO, QO, JO)",HCN1 channels [2],no effect
same,IC50 (in words),murine HCN1 channels,ill-defined
"CC1CCCC(C)C1O (stereo not drawn) [DM-CH, 2,6-di-methyl cyclohexanol]",IC50 (in words),murine HCN1 channels,ill-defined
"CC(C)C1CCCC(C(C)C)C1O (stereo not drawn) [DIP-CH, 2,6-di-iso-propyl cyclohexanol]",Behavior in the presence of 3 μM DTB-P (in words),HCN1 channels [1],partial inverse agonists
same,"Fold Change of closed state association constant, phenol vs cyclohexanol",HCN1 channels [2],3.8
same,"Fold Change of open state association constant, phenol vs cyclohexanol",HCN1 channels [2],1.8
same,IC50,murine HCN1 channels,35 ± 21 µM
same,ΔV1/2 max,murine HCN1 channels; [7],−18.9 ± 3.4 mV
same,h (Hill coefficient),"murine HCN1 channels; Hill fit, mean ± SD",0.76 ± 0.19
"CC(C)(C)C1CCCC(C(C)(C)C)C1O (stereo not drawn) [DTB-CH, 2,6-di-tert-butyl cycloxhexanol]",Behavior in the presence of 3 μM DTB-P (in words),HCN1 channels [1],partial inverse agonists
same,"Fold Change of closed state association constant, phenol vs cyclohexanol",HCN1 channels [2],5.4
same,"Fold Change of open state association constant, phenol vs cyclohexanol",HCN1 channels [2],1.8
same,"Association constant to closed channels (KC, QC, JC)",HCN1 channels [2],4.6 ± 2.0
same,"Association constant to open channels (KO, QO, JO)",HCN1 channels [2],3.1 ± 1.5
same,ΔV1/2 max,murine HCN1 channels; [7],−9.9 ± 1.5 mV
same,IC50,"murine HCN1 channels; Hill fit of ΔV1/2 vs concentration, all parameters free, mean ± SD",11.4 ± 4.2 µM
same,h (Hill coefficient),"murine HCN1 channels; Hill fit, mean ± SD",1.28 ± 0.47
"CCc1cccc(CC)c1O [DE-P, 2,6-di-ethyl phenol]",Maximal efficacy lower than the maximal effect of DIP-P and DTB-P,murine HCN1 channels,~ 2 fold
same,ΔV1/2,"murine HCN1 channels; 100 μM, n = 8",−21.6 mV
same,ΔV1/2,"murine HCN1 channels; 300 μM, n = 9",−21.2 mV
same,ΔV1/2 max,murine HCN1 channels; [7],−22.1 ± 1.0 mV
same,h (Hill coefficient),"murine HCN1 channels; Hill fit, mean ± SD",1.95 ± 0.44
same,IC50,"murine HCN1 channels; IC50, Hill fit of ΔV1/2 vs concentration, all parameters free, mean ± SD",25.1 ± 2.7 µM
same,Inverse agonist behavior on HCN1 gating (in words),murine HCN1 channels,partial inverse agonist
same,Aqueous solubility limit,[4]; ref https://comptox.epa.gov/dashboard DTXSID5061401,~ 10 mM
"Cc1cccc(C)c1S [DM-PT, 2,6-di-methyl phenyl-thiol]",Inverse agonist behavior on HCN1 gating (in words),murine HCN1 channels,clear inverse agonist activity
